According to EP0061001A1, “Antiallergic agent comprising derivatives of adenosine” (Yamasa Shoyu Kabushiki Kaisha, priority 1981, dated 1982):
Like-named read-outs stand apart in the source and are kept apart here.

How the values were obtained:
[1] = tested on: Passive cutaneous anaphylaxis (PCA); experiment: Passive cutaneous anaphylaxis (PCA) suppressing effect, method of J. Goose et al; assay type: in vivo, rats (Sprague Dawley-strain); settings: iv, 40 min, rat PCA, compound given intravenously with antigen and Evans blue
Method: According to the method of J. Goose et al (see Immunology 16, 749, 1969), PCA reaction was carried out in the following manner.
To male rats (Sprague Dawley-strain; hereinafter abbreviated as SD-strain), weighing 120 to 150 g, 10 mg/kg of ovalubumin was administered intramuscularly and 2 x 10^10 cells of Bodetalla pertussis vaccine intraperitoneally. After 10 to 12 days, each rat was bled and antiserum was separated.
To other rats (SD-strain, weighing 120 to 150 g) shaved at the back, under ether anesthetization, 0.1 ml of the above antiserum diluted 4-fold was injected intradermally for dermal sensitization. After 48 hours, 1 mg/kg of ovalubumin (antigen), 1 mg/kg of Evans blue (dye) and various N^6-ω-aminoalkyl adenosine compounds and DSCG or isotonic saline were challenged intravenously. After 40 minutes, the diameter of dye spots on the skin and the leak quantity of dye were measured to determine ED50 (50% effective amount) for each compound.
The leak quantity of dye was determined by extracting the dye from the skin peeled off with potassium hydroxide, removing proteins with acetoneafter neutralization with phosphoric acid, and thereafter measuring absorbance at 620 nm of the resultant extract, which step was then followed by calculation therefrom. The N^6-ω-aminoalkyl adenosine compounds provided for the tests are enumerated below: […]

Acute toxicity tests = settings: mouse, in vivo, ip; male mice, intraperitoneally, free form in isotonic saline solution or suspension; brackets = 95% confidence limit
Method: To ICR-JCL-strain mice (male, weighing 24 to 28 g), various N^6-w-aminoalkyl adenosine compound-s (each in free form) were administered as isotonic saline solutions or suspensions each in a dosage of 0.1 ml/10 g intraperitoneally for determination of LD50.

[2] = diameter of dye spots on the skin after 40 minutes, read-out: ED50 By diameter
[3] = leak quantity of dye after 40 minutes (absorbance at 620 nm), read-out: ED50 By dye quantity

| SMILES | ED50 [1, 2] | ED50 [1, 3] | LD50 (Acute toxicity tests) |
| --- | --- | --- | --- |
| NCCCCCCCCCCNc1ncnc2c1ncn2[C@@H]1O[C@@H]2COP(=O)(O)O[C@H]2[C@H]1O [compound 15, N^6-(10-amino-n-decanyl)-cAMP] | 8.2 mg/kg | 6 mg/kg | – |
| NCCCCCCCCNc1ncnc2c1ncn2[C@@H]1O[C@H](CO)[C@@H](OP(=O)(O)O)[C@H]1O [compound 10, N^6-(8-amino-n-octyl)-3'-AMP] | 1.5 mg/kg | 0.7 mg/kg | 220 mg/kg |
| O=C(O)c1cc(=O)c2c(OCC(O)COc3cccc4oc(C(=O)O)cc(=O)c34)cccc2o1 [DSCG, disodium cromoglycate, reference compound] | 3.3 mg/kg | 3 mg/kg | – |
| NCCCCCCCCCNc1ncnc2c1ncn2[C@@H]1O[C@@H]2COP(=O)(O)O[C@H]2[C@H]1O [compound 14, N^6-(9-amino-n-nonyl)-cAMP] | > 3.3 mg/kg | 3.3 mg/kg | – |
| NCCCCCCCCCNc1ncnc2c1ncn2[C@@H]1O[C@H](CO)[C@@H](O)[C@H]1O [compound 4, N^6-(9-amino-n-nonyl)-Ado] | 0.084 mg/kg | 0.084 mg/kg | 175 mg/kg |
| NCCCNc1ncnc2c1ncn2[C@@H]1O[C@H](COP(=O)(O)O)[C@@H](O)[C@H]1O [compound 5, N^6-(3-amino-n-propyl)-5'-AMP] | 0.46 mg/kg | 0.31 mg/kg | – |
| NCCCCNc1ncnc2c1ncn2[C@@H]1O[C@@H]2COP(=O)(O)O[C@H]2[C@H]1O [compound 11, N^6-(4-amino-n-butyl)-cAMP] | 15 mg/kg | 9.4 mg/kg | – |
| NCCCCCCNc1ncnc2c1ncn2[C@@H]1O[C@H](CO)[C@@H](OP(=O)(O)O)[C@H]1O [compound 9, N^6-(6-amino-n-hexyl)-3'-AMP] | 1.9 mg/kg | 0.7 mg/kg | – |
| NCCCCNc1ncnc2c1ncn2[C@@H]1O[C@H](CO)[C@@H](OP(=O)(O)O)[C@H]1O [compound 8] | 1.7 mg/kg | 0.64 mg/kg | – |
| NCCCCCCCCNc1ncnc2c1ncn2[C@@H]1O[C@@H]2COP(=O)(O)O[C@H]2[C@H]1O [compound 13, N^6-(8-amino-n-octyl)-cAMP] | 3.7 mg/kg | 3.1 mg/kg | – |
| NCCCNc1ncnc2c1ncn2[C@@H]1O[C@H](CO)[C@@H](O)[C@H]1O [compound 1, N^6-(3-amino-n-propyl)-Ado] | 0.87 mg/kg | 0.2 mg/kg | – |
| NCCCCCCCNc1ncnc2c1ncn2[C@@H]1O[C@H](CO)[C@@H](O)[C@H]1O [compound 3, N^6-(7-amino-n-heptyl)-Ado] | 0.058 mg/kg | 0.06 mg/kg | 145 mg/kg |
| NCCCCCCNc1ncnc2c1ncn2[C@@H]1O[C@H](CO)[C@@H](O)[C@H]1O [compound 2, N^6-(6-amino-n-hexyl)-Ado] | 0.15 mg/kg | 0.06 mg/kg | – |
| NCCCCCCNc1ncnc2c1ncn2[C@@H]1O[C@@H]2COP(=O)(O)O[C@H]2[C@H]1O [compound 12, N^6-(6-amino-n-hexyl)-cAMP] | 3.3 mg/kg | 3.2 mg/kg | 165 mg/kg |
| NCCCCCCCCCNc1ncnc2c1ncn2[C@@H]1O[C@H](COP(=O)(O)O)[C@@H](O)[C@H]1O [compound 7, N^6-(9-amino-n-nonyl)-5'-AMP] | 0.29 mg/kg | 0.16 mg/kg | 195 mg/kg |
| NCCCCCCNc1ncnc2c1ncn2[C@@H]1O[C@H](COP(=O)(O)O)[C@@H](O)[C@H]1O [compound 6, N^6-(6-amino-n-hexyl)-5'-AMP] | 0.51 mg/kg | 0.32 mg/kg | – |
